Laboratory results published in article PMC4502315, “High Potency of a Novel Resveratrol Derivative, 3,3′,4,4′-Tetrahydroxy-trans-stilbene, against Ovarian Cancer Is Associated with an Oxidative Stress-Mediated Imbalance between DNA Damage Accumulation and Repair” (Oxidative Medicine and Cellular Longevity, 2015).

How the values were obtained:
[1] = tested on: superoxide dismutase (SOD); assay: SOD activity in cell lysates, OVCAR-3; assay type: cell-based, human; conditions: 24 h, 10, 50, 100 μM tested
Procedure: (§1) Total activity of superoxide dismutase (SOD) was measured in cell lysates with a commercially available kit (R&D Systems Europe, Abingdon, UK), while the activity of catalase (CAT) was estimated by using the OxiSelect Catalase Activity Assay Kit (Cell Biolabs Inc., San Diego, CA, USA). Both assays were performed according to the manufacturer's instructions.

A2780 = assay: LDH release assay, A2780; assay type: cell-based; conditions: Homo sapiens, 24 h; for IC50: CalcuSyn
Procedure: As per LDH release, the measurements were performed using the commercially available Pierce LDH Cytotoxicity Assay Kit (Pierce Biotechnology, Rockford, IL, USA). In this assay, cells with damaged plasma membranes release LDH into the culture environment; then the enzyme catalyses the conversion of lactate to pyruvate, which is accompanied by a reduction of NAD^+ to NADH. Afterwards, diaphorase uses NADH to reduce a tetrazolium salt to a formazan whose level is proportional to LDH activity. The absorbance emitted by the formazan was monitored at 490 nm with a reference wavelength of 680 nm.
In order to examine the effect of 3,3′,4,4′-THS on the viability of ovarian cancer cells and to compare its activity with RVT, subconfluent cultures of A2780, OVCAR-3, and SKOV-3 cells were subjected to a wide range of stilbene concentrations (0–500 μM) for 24 h; then MTT and LDH release assays were performed.

[2] = tested on: superoxide dismutase (SOD); assay: SOD activity in cell lysates, HPMCs; assay type: cell-based, human; conditions: 24 h, percentage of control cells
Procedure: as §1

HOSE cells [3] = assay: Oxidative DNA damage (8-OH-dG immunoassay), HOSE cells; assay type: cell-based, human; conditions: 24 h, percentage of control cells
Procedure: (§2) Oxidative DNA damage was assessed by measuring the 8-OH-dG concentration with a competitive immunoassay (Cell Biolabs Inc.), as per manufacturer's instructions. The efficiency of 8-OH-dG repair was estimated after cell recovery for 24 h in standard growth medium. In order to examine the activity of DNA glycosylase I, reverse transcription PCR was performed. RNA extraction was carried out using the RNA Bee (Tel-Test, Friendswood, Texas, USA) and purified according to the manufacturer's protocol. One microgram of RNA was reverse transcribed into cDNA with random hexamer primers, and cDNA was subjected to PCR. The profile of the replication cycles was denaturation at 94°C for 50 s, annealing at 58°C for 50 s, and polymerization at 72°C for 1 min. In each reaction, the expression of glyceraldehyde-3-phosphate dehydrogenase (GAPDH) served as the internal control. The primers used for PCR were as follows: hOGG1 forward, 5′-[…]-3′; hOGG1 reverse, 5′-TAGCCCGCCCTGTTCTTC-3′ designed to amplify a 551-bp region; GAPDH forward, 5′-CCATGGAGAAGGCTGGGG-3′; and GAPDH reverse 5′-[…]-3′ designed to amplify a 194-bp region (total number of cycles: 28). The PCR products were separated on 3% agarose gels stained with ethidium bromide and then visualized.

catalase (CAT) = assay: CAT activity, HPMCs; assay type: cell-based, human; conditions: 24 h, percentage of control cells
Procedure: as §1

A2780 cells = assay: Oxidative DNA damage (8-OH-dG immunoassay), A2780; assay type: cell-based, human; conditions: 24 h, 10, 50, 100 μM tested
Procedure: as §2

OVCAR-3 cells [4] = assay: Cell proliferation (CFDA SE), OVCAR-3; assay type: cell-based, human; conditions: low-density cultures, 24 h, 10, 50, 100 μM tested
Procedure: (§3) Cell proliferative potential was determined using Cell Proliferation Kit I (PromoKine, Heidelberg, Germany) according to the manufacturer's instructions. In brief, cells were probed for 15 min with 5-(and 6)-carboxyfluorescein diacetate, a succinimidyl ester (CFDA SE; 2 μM) which diffuses into cells, covalently binds to proteins, and becomes fluorescent upon its hydrolysis by intracellular esterases. The fluorescence emitted by the cells (the dye is inherited by the daughter cells through successive divisions) was recorded using a Victor2 spectrofluorometer (Perkin-Elmer, Turku, Finland) with excitation at 435 nm and emission at 535 nm.

[5] = tested on: superoxide dismutase (SOD); assay: SOD activity in cell lysates, HOSE cells; assay type: cell-based, human; conditions: 24 h, percentage of control cells
Procedure: as §1

OVCAR-3 cells [6] = assay: Oxidative DNA damage (8-OH-dG immunoassay), OVCAR-3; assay type: cell-based, human; conditions: 24 h, 10, 50, 100 μM tested
Procedure: as §2

[7] = tested on: superoxide dismutase (SOD); assay: SOD activity in cell lysates, A2780; assay type: cell-based, human; conditions: 24 h, 10, 50, 100 μM tested
Procedure: as §1

p38 MAPK = p38 MAPK activation (FACE ELISA), SKOV-3; assay type: cell-based, human; conditions: 24 h, 10, 50, 100 μM tested
Procedure: Activation of p38 MAPK was examined using the Fast Activated Cell-Based ELISA (FACE) p38 kit (Active Motif) according to the manufacturer's instructions. In brief, cells were fixed with 4% formaldehyde and incubated with a primary antibody that recognizes either phosphorylated p38 or total p38 overnight at 4°C. Then the cells were washed and incubated with a secondary HRP-conjugated antibody for 1 h at room temperature. The color reaction that developed was read using a spectrofluorometer at 450 nm wavelength.
The results were expressed as a ratio of phosphorylated to total p38 activity.

SKOV-3 cells [8] = assay: Cell proliferation (CFDA SE), SKOV-3; assay type: cell-based, human; conditions: low-density cultures, 24 h, 10, 50, 100 μM tested
Procedure: as §3

HOSE cells [9] = assay: Apoptosis (Hoechst 33258), HOSE cells; assay type: cell-based, human; conditions: 24 h, percentage of control cells
Procedure: (§4) Identification of apoptosis was based on the presence of DNA condensation in cells stained with a fluorescent dye, Hoechst 33258 (Molecular Probes, Eugene, OR). Cells were grown on Lab-Tek Chamber Slides (Nunc, Roskilde, Denmark), fixed with 4% formaldehyde for 10 min and washed twice with PBS. Then the cells were incubated with Hoechst 33258 (0.1 μg/mL) for 5 min in the dark. After washing with PBS, stained nuclei were observed and counted under a Zeiss Axio Observer D1 fluorescence microscope (Carl Zeiss, Jena, Germany). The activity of caspases 3, 8, and 9 was quantified in the cell lysates using specific colorimetric kits (Abcam, Cambridge, UK) according to the manufacturer's instructions.

SKOV-3 cells [10] = assay: ROS production (H2DCFDA), SKOV-3; assay type: cell-based, human; conditions: 24 h, 10, 50, 100 μM tested
Procedure: (§5) ROS production was assessed in cells probed with a fluorescent dye, 2′,7′-dichlorodihydrofluorescein diacetate (H2DCFDA; 5 μM) (Molecular Probes, Eugene, USA) for 45 min at 37°C. Fluorescence intensity in cell lysates was monitored in a Victor2 spectrofluorometer with excitation at 485 nm and emission at 535 nm.

HPMCs = assay: ROS production (H2DCFDA), HPMCs; assay type: cell-based, human; conditions: 24 h, percentage of control cells
Procedure: as §5

SKOV-3 cells [11] = assay: Apoptosis (Hoechst 33258), SKOV-3; assay type: cell-based, human; conditions: 24 h, 10, 50, 100 μM tested
Procedure: as §4

| Structure (SMILES) | SOD activity, effect in words [1] | IC50 (A2780) [µM] | SOD ([2]; 10 μM) | SOD ([2]; 50 μM) | SOD ([2]; 100 μM) | 8-OH-dG (HOSE cells [3]; 10 μM) [%] | 8-OH-dG (HOSE cells [3]; 50 μM) | 8-OH-dG (HOSE cells [3]; 100 μM) | CAT (catalase (CAT); 10 μM) | CAT (catalase (CAT); 50 μM) | CAT (catalase (CAT); 100 μM) | concentration of 8-OH-dG (oxidative DNA damage), effect in words (A2780 cells) | proliferation, effect in words (OVCAR-3 cells [4]) | SOD ([5]; 10 μM) | SOD ([5]; 50 μM) | SOD ([5]; 100 μM) | concentration of 8-OH-dG (oxidative DNA damage), effect in words (OVCAR-3 cells [6]) | SOD activity, effect in words [7] | p38 MAPK activity (phosphorylated/total), effect in words (p38 MAPK) | proliferation, effect in words (SKOV-3 cells [8]) | also measured |
| --- | --- | --- | --- | --- | --- | --- | --- | --- | --- | --- | --- | --- | --- | --- | --- | --- | --- | --- | --- | --- | --- |
| Oc1ccc(/C=C/c2cc(O)cc(O)c2)cc1 [RVT, 3,4′,5-trihydroxy-trans-stilbene, reference compound] | upregulated activity of the enzyme | 65 | 110 ± 2^∗ % | 112 ± 3^∗ % | 113 ± 2^∗ % | 103 ± 5 | 102 ± 5% | 82 ± 4^∗ % | 101 ± 1% | 103 ± 4% | 118 ± 3^∗ % | induced DNA injury in A2780 and SKOV-3 at 50 and 100 μM | effectively reduced the expandability | 111 ± 3^∗ % | 112 ± 3^∗ % | 121 ± 4^∗ % | evident only at 100 μM | upregulated activity of the enzyme | failed to activate p38 MAPK | such a low dose was effective in SKOV-3 cultures only | Apoptosis (HOSE cells [9]; 10 μM): 99 ± 2%; Apoptosis (HOSE cells [9]; 50 μM): 101 ± 2%; Apoptosis (HOSE cells [9]; 100 μM): 102 ± 3%; generation of ROS, effect in words (SKOV-3 cells [10]): stimulated the release of ROS; ROS (HPMCs; 10 μM): 108 ± 4^∗ %; ROS (HPMCs; 50 μM): 106 ± 11%; ROS (HPMCs; 100 μM): 105 ± 7%; incidence of apoptosis (rise in percentage of death cells), effect in words (SKOV-3 cells [11]): exhibiting its impact at concentrations of 50 and 100 μM for the A2780 and SKOV-3 cells |
| Oc1ccc(/C=C/c2ccc(O)c(O)c2)cc1O [3,3′,4,4′-THS, 3,3′,4,4′-tetrahydroxy-trans-stilbene] | increased SOD at 10 μM and decreased the activity of the enzyme at 50 and 100 μM | 6 | 122 ± 4^∗# % | 141 ± 3^∗# % | 136 ± 4^∗# % | 103 ± 3 | 76 ± 3^∗# % | 71 ± 2^∗# % | 112 ± 2^∗# % | 123 ± 4^∗# % | 154 ± 1^∗# % | only concentrations of 50 and 100 μM were effective | evident at as low a concentration as 10 μM | 122 ± 1^∗# % | 141 ± 5^∗# % | 136 ± 2^∗# % | increasing the concentration of 8-OH-dG in the OVCAR-3 and SKOV-3 cells starting from a dose of 10 μM | increased SOD at 10 μM and decreased the activity of the enzyme at 50 and 100 μM | exerted upregulatory activity at 50 and 100 μM | evident at as low a concentration as 10 μM | viability at 10 µM (A2780; 10 μM, percentage of control cells): 42 ± 3%; viability at 50 µM (A2780; 50 μM, percentage of control cells): 26 ± 3%; viability at 100 µM (A2780; 100 μM, percentage of control cells): 22 ± 3%; Apoptosis (HOSE cells [9]; 10 μM): 101 ± 1%; Apoptosis (HOSE cells [9]; 50 μM): 100 ± 2%; Apoptosis (HOSE cells [9]; 100 μM): 102 ± 2%; generation of ROS, effect in words (SKOV-3 cells [10]): remarkably stronger; ROS (HPMCs; 10 μM): 104 ± 4%; ROS (HPMCs; 50 μM): 102 ± 3%; ROS (HPMCs; 100 μM): 82 ± 1^∗# %; incidence of apoptosis (rise in percentage of death cells), effect in words (SKOV-3 cells [11]): evident starting from the lowest concentration of 10 μM |
